Numbers after ± are expanded uncertainties.

The conditions of data set [1]: for surface tension liquid-gas: Ring tensiometer; for mass density: 101.3 kPa, Liquid.
Data set [2] is described as follows: xn = mol fraction of the nth substance listed. As to conditions: x2 = 0; for surface tension liquid-gas: Ring tensiometer; for mass density: 101.3 kPa, Liquid.

One may read the surface tension liquid-gas as the force per length acting along the surface. In general, mass density refers to mass per unit of volume. Take `COCCOCCOCCOCCOC` [2,5,8,11,14-pentaoxapentadecane]: the surface tension liquid-gas was 33.74 ± 0.69 mN/m in data set [1] (298.15 K), 32.45 ± 0.67 mN/m in data set [1] (308.15 K) and 31.71 ± 0.65 mN/m in data set [1] (318.15 K). For the same compound, the mass density came to 1007.26 ± 2.1 kg/m3 in data set [1] (298.15 K), 997.98 ± 2.1 kg/m3 in data set [1] (308.15 K) and 988.72 ± 2.1 kg/m3 in data set [1] (318.15 K).

For the compound `COCCOCCOCCOC` [2,5,8,11-tetraoxadodecane], the surface tension liquid-gas is listed as 27.56 ± 0.48 mN/m in data set [1] (298.15 K), 28.48 ± 0.5 mN/m in data set [1] (308.15 K) and 27.83 ± 0.49 mN/m in data set [1] (318.15 K). Besides, the mass density in data set [1] (298.15 K) amounted to 981.23 ± 1.1 kg/m3; in data set [1] (308.15 K) it was 971.71 ± 1.1 kg/m3; in data set [1] (318.15 K), 962.19 ± 1.1 kg/m3.

`COCCOCCOC` [2,5,8-trioxanonane]: the surface tension liquid-gas is given as 24.56 ± 0.41 mN/m in data set [1] (298.15 K), 27.65 ± 0.45 mN/m in data set [1] (308.15 K) and 23.44 ± 0.4 mN/m in data set [1] (318.15 K). Also, the mass density in data set [1] (298.15 K) is 940.01 ± 0.83 kg/m3; in data set [1] (308.15 K), 930.03 ± 0.86 kg/m3; in data set [1] (318.15 K) it was 919.99 ± 0.88 kg/m3.

With `O` [water] + COCCOCCOC, the surface tension liquid-gas in data set [2] (298.15 K) is on record as 71.37 ± 1 mN/m; in data set [2] (308.15 K) it was 70.08 ± 1 mN/m; in data set [2] (318.15 K) it was 69.11 ± 1 mN/m. The mass density in data set [2] (308.15 K) is 994.06 ± 0.27 kg/m3.

On to `O` [water] + COCCOCCOCCOC, for which the values for the surface tension liquid-gas in data set [2] (298.15 K), in data set [2] (308.15 K) and in data set [2] (318.15 K) were 71.37 ± 1 mN/m, 70.08 ± 1 mN/m and 69.11 ± 1 mN/m, respectively. In data set [2] (308.15 K), the mass density amounted to 994.06 ± 0.27 kg/m3.

Regarding `O` [water] + COCCOCCOCCOCCOC, the surface tension liquid-gas worked out at 71.37 ± 1 mN/m in data set [2] (298.15 K), 70.08 ± 1 mN/m in data set [2] (308.15 K) and 69.11 ± 1 mN/m in data set [2] (318.15 K). In data set [2] (308.15 K), the mass density was 994.06 ± 0.27 kg/m3.

The record behind these values is the NIST ThermoML archive (doi:10.1021/je100757w).
